Data as given in US9944624B2, “Substituted amino triazoles useful as human chitinase inhibitors” (OncoArendi Therapeutics S.A., priority 2015, dated 2018).
pIC50: −log10 of the molar value.

Columns and labels:
[1] = target: recombinant human AMCase (Homo sapiens (Human), UniProt Q9BZP6); assay: Human AMCase activity assay (fluorescent 4MU substrate); type: biochemical; conditions: citrate buffer pH 5.2, 37° C., 60 minutes; substrate 4-methylumbelliferyl B-D-N,N′-diacetylchitobioside hydrate; read-out: Activity on hAMCase, IC50
[2] = target: recombinant human CHIT1 (Homo sapiens (Human), UniProt Q13231); assay: Human CHIT1 activity assay (fluorescent 4MU substrate); type: biochemical; conditions: citrate buffer pH 5.2, 37° C., 60 minutes; substrate 4-methylumbelliferyl β-D-N,N′,N″-triacetylchitotriose; read-out: Activity on hCHIT1, IC50
Sequence of recombinant human CHIT1 (Q13231 22-466): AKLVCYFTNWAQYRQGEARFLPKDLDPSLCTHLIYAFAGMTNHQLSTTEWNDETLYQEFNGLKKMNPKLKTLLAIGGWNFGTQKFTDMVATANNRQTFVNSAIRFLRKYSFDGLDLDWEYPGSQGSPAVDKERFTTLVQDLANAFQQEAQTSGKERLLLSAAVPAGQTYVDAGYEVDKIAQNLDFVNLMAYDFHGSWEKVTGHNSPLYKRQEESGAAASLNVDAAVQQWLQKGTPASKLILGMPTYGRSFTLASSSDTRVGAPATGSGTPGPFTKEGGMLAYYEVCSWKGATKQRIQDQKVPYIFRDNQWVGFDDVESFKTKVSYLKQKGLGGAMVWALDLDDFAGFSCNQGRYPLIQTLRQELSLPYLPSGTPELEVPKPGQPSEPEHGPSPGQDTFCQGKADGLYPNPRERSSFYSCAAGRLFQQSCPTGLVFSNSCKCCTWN

Sequence of recombinant human AMCase (Q9BZP6 22-476): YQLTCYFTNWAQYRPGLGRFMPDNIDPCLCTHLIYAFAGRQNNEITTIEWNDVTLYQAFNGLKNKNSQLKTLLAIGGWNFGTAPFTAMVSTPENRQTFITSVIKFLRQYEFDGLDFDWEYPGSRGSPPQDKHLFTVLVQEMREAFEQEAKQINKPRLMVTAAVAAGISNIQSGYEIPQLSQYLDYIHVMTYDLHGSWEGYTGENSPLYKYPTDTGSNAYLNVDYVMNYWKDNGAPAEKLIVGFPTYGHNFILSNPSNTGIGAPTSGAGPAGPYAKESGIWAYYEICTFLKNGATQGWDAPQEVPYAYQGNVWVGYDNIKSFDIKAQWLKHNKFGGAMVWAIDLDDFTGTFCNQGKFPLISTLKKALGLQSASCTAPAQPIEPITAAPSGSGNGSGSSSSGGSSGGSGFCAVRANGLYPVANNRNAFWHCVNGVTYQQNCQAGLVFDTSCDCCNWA

| SMILES | pIC50 [1] | pIC50 [2] |
| --- | --- | --- |
| Nc1nnc(N2CCC(N3CCOC[C@@H]3Cc3ccc(Cl)cc3)CC2)[nH]1 [Example 1, (S)-5-(4-(3-(4-chlorobenzyl)morpholino)piperidin-1-yl)-4H-1,2,4-triazol-3-amine] | > 7.00 |  |
| Nc1nnc(N2CCC(N3CCOCC3Cc3ccc(Cl)cc3)CC2)[nH]1 (centres unmarked) [Example 2, 5-(4-(3-(4-chlorobenzyl)morpholino)piperidin-1-yl)-4H-1,2,4-triazol-3-amine] |  | 6.00 to 7.00 |
| Nc1nnc(N2CCC(N3CCOC[C@@H]3Cc3ccc(Br)cc3)CC2)[nH]1 [Example 3, (S)-5-(4-(3-(4-bromobenzyl)morpholino)piperidin-1-yl)-4H-1,2,4-triazol-3-amine] | > 7.00 |  |
| CCOC[C@H]1CN(C2CCN(c3nnc(N)[nH]3)CC2)[C@@H](Cc2ccc(Cl)cc2)CO1 [Example 11, 5-(4-((2R,5S)-5-(4-chlorobenzyl)-2-(ethoxymethyl)morpholino)piperidin-1-yl)-4H-1,2,4-triazol-3-amine] | > 7.00 |  |
| COC(C)(C)[C@H]1CN(C2CCN(c3nnc(N)[nH]3)CC2)[C@@H](Cc2ccc(Cl)cc2)CO1 [Example 14, 5-(4-((2R,5S)-5-(4-chlorobenzyl)-2-(2-methoxypropan-2-yl)morpholino)piperidin-1-yl)-4H-1,2,4-triazol-3-amine] | > 7.00 |  |
| Nc1nnc(N2CCC(N3CCCC[C@@H]3Cc3ccc(Cl)cc3)CC2)[nH]1 [Example 15, (R)-5-(2-(4-chlorobenzyl)-[1,4′-bipiperidin]-1′-yl)-4H-1,2,4-triazol-3-amine] | > 7.00 |  |
| CCOC(=O)C1CC[C@H](Cc2ccc(Cl)cc2)N(C2CCN(c3nnc(N)[nH]3)CC2)C1 (stereo partly drawn) [Example 16, ethyl (6R)-1′-(5-amino-4H-1,2,4-triazol-3-yl)-6-(4-chlorobenzyl)-[1,4′-bipiperidine]-3-carboxylate] | > 7.00 |  |
| Nc1nnc(N2CCC(N3CC(C(=O)O)CC[C@@H]3Cc3ccc(Cl)cc3)CC2)[nH]1 (stereo partly drawn) [Example 17, (6R)-1′-(5-amino-4H-1,2,4-triazol-3-yl)-6-(4-chlorobenzyl)-[1,4′-bipiperidine]-3-carboxylic acid] | > 7.00 |  |
| CC1(C(=O)O)CC[C@H](Cc2ccc(Cl)cc2)N(C2CCN(c3nnc(N)[nH]3)CC2)C1 (stereo partly drawn) [Example 18, (6R)-1′-(5-amino-4H-1,2,4-triazol-3-yl)-6-(4-chlorobenzyl)-3-methyl-[1,4′-bipiperidine]-3-carboxylic acid] | > 7.00 |  |
| Nc1nnc(N2CCC(N3CCCCC3C(O)c3ccc(Cl)cc3)CC2)[nH]1 (centres unmarked) [Example 21, (1′-(5-amino-4H-1,2,4-triazol-3-yl)-[1,4′-bipiperidin]-2-yl)(4-chlorophenyl)methanol] |  | 4.00 to 5.00 |
| CO[C@H]1CN(C2CCN(c3nnc(N)[nH]3)CC2)[C@H]1Cc1ccc(Cl)cc1 [Example 22, 5-(4-((2S,3S)-2-(4-chlorobenzyl)-3-methoxyazetidin-1-yl)piperidin-1-yl)-4H-1,2,4-triazol-3-amine] |  | 6.00 to 7.00 |
| Nc1nnc(N2CCC(N3CCNC[C@@H]3Cc3ccc(Cl)cc3)CC2)[nH]1 [Example 26, (S)-5-(4-(2-(4-chlorobenzyl)piperazin-1-yl)piperidin-1-yl)-4H-1,2,4-triazol-3-amine] |  | 5.00 to 6.00 |
| CO[C@H]1C[C@H](Cc2ccc(Cl)cc2)N(C2CCN(c3nnc(N)[nH]3)CC2)C1 [Example 46, 5-(4-((2S,4S)-2-(4-chlorobenzyl)-4-methoxypyrrolidin-1-yl)piperidin-1-yl)-4H-1,2,4-triazol-3-amine] |  | > 7.00 |
| CO[C@@H]1C[C@H](Cc2ccc(Cl)cc2)N(C2CCN(c3n[nH]c(N)n3)CC2)C1 [Example 51, 3-(4-((2S,4R)-2-(4-chlorobenzyl)-4-methoxypyrrolidin-1-yl)piperidin-1-yl)-1H-1,2,4-triazol-5-amine] |  | > 7.00 |
| C=C1COC[C@H](Cc2ccc(Cl)cc2)N(C2CCN(c3nnc(N)[nH]3)CC2)C1 [Example 55, (S)-5-(4-(3-(4-chlorobenzyl)-6-methylene-1,4-oxazepan-4-yl)piperidin-1-yl)-4H-1,2,4-triazol-3-amine] | > 7.00 | 6.00 to 7.00 |
| CN1C[C@H](Cc2ccc(Cl)cc2)N(C2CCN(c3nnc(N)[nH]3)CC2)Cc2ccccc21 [Example 57, (S)-5-(4-(3-(4-chlorobenzyl)-1-methyl-2,3-dihydro-1H-benzo[e][1,4]diazepin-4(5H)-yl)piperidin-1-yl)-4H-1,2,4-triazol-3-amine] | > 7.00 | 6.00 to 7.00 |
| CN1C[C@H](Cc2ccc(Cl)cc2)N(C2CCN(c3nnc(N)[nH]3)CC2)Cc2cc(Cl)ccc21 [Example 58, (S)-5-(4-(7-chloro-3-(4-chlorobenzyl)-1-methyl-2,3-dihydro-1H-benzo[e][1,4]diazepin-4(5H)-yl)piperidin-1-yl)-4H-1,2,4-triazol-3-amine] | > 7.00 | 6.00 to 7.00 |
| Nc1nnc(N2CCC(N3Cc4ccccc4OC[C@@H]3Cc3ccc(Cl)cc3)CC2)[nH]1 [Example 59, (S)-5-(4-(3-(4-chlorobenzyl)-2,3-dihydrobenzo[f][1,4]oxazepin-4(5H)-yl)piperidin-1-yl)-4H-1,2,4-triazol-3-amine] | > 7.00 | 6.00 to 7.00 |
| Nc1nnc(N2CCC(N3Cc4cc(F)ccc4OC[C@@H]3Cc3ccc(Cl)cc3)CC2)[nH]1 [Example 60, (S)-5-(4-(3-(4-chlorobenzyl)-7-fluoro-2,3-dihydrobenzo[f][1,4]oxazepin-4(5H)-yl)piperidin-1-yl)-4H-1,2,4-triazol-3-amine] | > 7.00 | 6.00 to 7.00 |
| Nc1nnc(N2CCC(N3Cc4cc(Cl)ccc4OC[C@@H]3Cc3ccc(Cl)cc3)CC2)[nH]1 [Example 61, (S)-5-(4-(7-chloro-3-(4-chlorobenzyl)-2,3-dihydrobenzo[f][1,4]oxazepin-4(5H)-yl)piperidin-1-yl)-4H-1,2,4-triazol-3-amine] | > 7.00 | 5.00 to 6.00 |
| Nc1nnc(N2CCC(N3Cc4cc(Cl)cc(Cl)c4OC[C@@H]3Cc3ccc(Cl)cc3)CC2)[nH]1 [Example 62, (S)-5-(4-(7,9-dichloro-3-(4-chlorobenzyl)-2,3-dihydrobenzo[f][1,4]oxazepin-4(5H)-yl)piperidin-1-yl)-4H-1,2,4-triazol-3-amine] | > 7.00 | 4.00 to 5.00 |
| Nc1nnc(N2CCC(N3Cc4ccncc4OC[C@@H]3Cc3ccc(Cl)cc3)CC2)[nH]1 [Example 63, (S)-5-(4-(3-(4-chlorobenzyl)-2,3-dihydropyrido[4,3-f][1,4]oxazepin-4(5H)-yl)piperidin-1-yl)-4H-1,2,4-triazol-3-amine] | > 7.00 | 5.00 to 6.00 |

Further lines, results first:

| pIC50 [1] | pIC50 [2] | SMILES |
| --- | --- | --- |
|  | 4.00 to 5.00 | Nc1nnc(N2CCC(N3C[C@@H](F)[C@@H]3Cc3ccc(Cl)cc3)CC2)[nH]1 [Example 23, 5-(4-((2S,3R)-2-(4-chlorobenzyl)-3-fluoroazetidin-1-yl)piperidin-1-yl)-4H-1,2,4-triazol-3-amine] |
|  | 5.00 to 6.00 | C[C@H]1CN(C2CCN(c3nnc(N)[nH]3)CC2)[C@@H](Cc2ccc(Cl)cc2)CN1C [Example 27, 5-(4-((2S,5S)-2-(4-chlorobenzyl)-4,5-dimethylpiperazin-1-yl)piperidin-1-yl)-4H-1,2,4-triazol-3-amine] |
|  | 4.00 to 5.00 | CC(C)CN1CCN(C2CCN(c3nnc(N)[nH]3)CC2)[C@@H](Cc2ccc(Cl)cc2)C1 [Example 29, (S)-5-(4-(2-(4-chlorobenzyl)-4-isobutylpiperazin-1-yl)piperidin-1-yl)-4H-1,2,4-triazol-3-amine] |
| > 7.00 | 5.00 to 6.00 | CN1C[C@H](Cc2ccc(Cl)cc2)N(C2CCN(c3nnc(N)[nH]3)CC2)C[C@@H]1Cc1ccc(Cl)cc1 [Example 31, 5-(4-((2S,5S)-2,5-bis(4-chlorobenzyl)-4-methylpiperazin-1-yl)piperidin-1-yl)-4H-1,2,4-triazol-3-amine] |
| > 7.00 | 5.00 to 6.00 | CN1C[C@H](Cc2ccc(Cl)cc2)N(C2CCN(c3nnc(N)[nH]3)CC2)C[C@@H]1CC1CCCCC1 [Example 32, 5-(4-((2S,5S)-2-(4-chlorobenzyl)-5-(cyclohexylmethyl)-4-methylpiperazin-1-yl)piperidin-1-yl)-4H-1,2,4-triazol-3-amine] |
| > 7.00 | 5.00 to 6.00 | CC(C)C[C@H]1CN(C2CCN(c3nnc(N)[nH]3)CC2)[C@@H](Cc2ccc(Cl)cc2)CN1C [Example 33, 5-(4-((2S,5S)-2-(4-chlorobenzyl)-5-isobutyl-4-methylpiperazin-1-yl)piperidin-1-yl)-4H-1,2,4-triazol-3-amine] |
| > 7.00 |  | COC(=O)CN1C[C@H](Cc2ccc(Cl)cc2)N(C2CCN(c3nnc(N)[nH]3)CC2)C[C@@H]1C [Example 40, methyl 2-((2S,5S)-4-(1-(5-amino-4H-1,2,4-triazol-3-yl)piperidin-4-yl)-5-(4-chlorobenzyl)-2-methylpiperazin-1-yl)acetate] |
| > 7.00 |  | C[C@H]1CN(C2CCN(c3nnc(N)[nH]3)CC2)[C@@H](Cc2ccc(Cl)cc2)CN1CC(=O)O [Example 41, 2-((2S,5S)-4-(1-(5-amino-4H-1,2,4-triazol-3-yl)piperidin-4-yl)-5-(4-chlorobenzyl)-2-methylpiperazin-1-yl)acetic acid] |
| > 7.00 | 6.00 to 7.00 | CC1(O)C[C@H](Cc2ccc(Cl)cc2)N(C2CCN(c3nnc(N)[nH]3)CC2)C1 (stereo partly drawn) [Example 48, (5S)-1-(1-(5-amino-4H-1,2,4-triazol-3-yl)piperidin-4-yl)-5-(4-chlorobenzyl)-3-methylpyrrolidin-3-ol] |
| > 7.00 |  | Nc1nnc(N2CCC(N3C[C@@H]4CCCN4C[C@@H]3Cc3ccc(Cl)cc3)CC2)[nH]1 [Example 49, 5-(4-((3S,8aS)-3-(4-chlorobenzyl)hexahydropyrrolo[1,2-a]pyrazin-2(1H)-yl)piperidin-1-yl)-4H-1,2,4-triazol-3-amine] |
